{"source": "patent US20110009628A1", "about": "“Compounds and Compositions for Modulating Lipid Levels and Methods of Preparing Same” (priority 2009, published 2011)", "tested_on": "LDLR mRNA expression in HepG2 cells", "assay": "LDLR mRNA expression in HepG2 cells, quantitative real-time RT-PCR (Example 7)", "assay_type": "cell-based, human", "conditions": "dose less than or equal to 10 μM, 24 hours", "method": "In yet another experiment, HepG2 cells were treated with various compounds for 24 hours at the indicated doses. Total RNA was isolated and 2 μg was used to generate cDNA in a reaction containing random primers and M-MLV at 37° C. for 1 hour in a volume of 25 μL. Real-time PCR was performed on the cDNA using MCEP REALPLEX 2 SYSTEM (Eppendorf) and Universal MasterMix (Applied Biosystems). Human LDLR and GAPDH Pre-Developed TaqMan Assay Reagents (Applied Biosystems) were used to assess the levels of mRNA expressions in HepG2. The levels of LDLR mRNA were normalized to that of GAPDH. Each RNA samples was assayed in triplicate. The abundance of LDLR mRNA in untreated cells was defined as 1, and the amounts of LDLR mRNA from compound-treated cells were plotted relative to that value in FIG. 2B. The data shown are mean±s.d.\nActivities of some compounds of Formulas I, II and EE on LDLR mRNA expression were determined. HepG2 cells were treated with new compounds individually at a dose less than or equal to 10 μM for 24 hours. […] In these experiments, berberine chloride was included for comparison.", "data": [{"molecule": "COc1ccc2c(c1OS(=O)(=O)c1ccc(-c3ccccc3)cc1)CN1CCc3cc4c(cc3C1C2)OCO4", "note": "(centres unmarked) [Compound 37, 10-methoxy-5,6,7,8,13,13a-hexahydro-2H-1,3-dioxolano[4,5-g]isoquinolino[3,2-a]isoquinolin-9-yl 4-phenylbenzenesulfonate]", "values": [{"measurement": "Activity on LDLR mRNA expression (Fold of control)", "value": "2.47 ± 0.07 Fold of control"}]}, {"molecule": "CCOC(=O)Oc1c(OC)ccc2c1CN1CCc3cc4c(cc3C1C2)OCO4", "note": "(centres unmarked) [Compound 48, 10-methoxy-5,6,7,8,13,13a-hexahydro-2H-1,3-dioxolano[4,5-g]isoquinolino[3,2-a]isoquinolin-9-yl ethoxyformate]", "values": [{"measurement": "Activity on LDLR mRNA expression (Fold of control)", "value": "1.45 ± 0.15 Fold of control"}]}, {"molecule": "COc1ccc2c(c1OS(=O)(=O)c1ccccc1F)CN1CCc3cc4c(cc3C1C2)OCO4", "note": "(centres unmarked) [Compound 51, 10-methoxy-5,6,7,8,13,13a-hexahydro-2H-1,3-dioxolano[4,5-g]isoquinolino[3,2-a]isoquinolin-9-yl 2-fluorobenzenesulfonate]", "values": [{"measurement": "Activity on LDLR mRNA expression (Fold of control)", "value": "3.79 ± 0.33 Fold of control"}]}, {"molecule": "COc1ccc2c(c1OS(=O)(=O)c1cccc(F)c1)CN1CCc3cc4c(cc3C1C2)OCO4", "note": "(centres unmarked) [Compound 52, 10-methoxy-5,6,7,8,13,13a-hexahydro-2H-1,3-dioxolano[4,5-g]isoquinolino[3,2-a]isoquinolin-9-yl 3-fluorobenzenesulfonate]", "values": [{"measurement": "Activity on LDLR mRNA expression (Fold of control)", "value": "3.63 ± 0.17 Fold of control"}]}, {"molecule": "COc1ccc2c(c1OS(=O)(=O)c1ccc(F)c(F)c1)CN1CCc3cc4c(cc3C1C2)OCO4", "note": "(centres unmarked) [Compound 53, 10-methoxy-5,6,7,8,13,13a-hexahydro-2H-1,3-dioxolano[4,5-g]isoquinolino[3,2-a]isoquinolin-9-yl 3,4-difluorobenzenesulfonate]", "values": [{"measurement": "Activity on LDLR mRNA expression (Fold of control)", "value": "3.96 ± 0.40 Fold of control"}]}, {"molecule": "COc1ccc2c(c1OS(=O)(=O)c1ccc(C)cc1)CN1CCc3cc4c(cc3C1C2)OCO4", "note": "(centres unmarked) [Compound 57, 10-methoxy-5,6,7,8,13,13a-hexahydro-2H-1,3-dioxolano[4,5-g]isoquinolino[3,2-a]isoquinolin-9-yl 4-methylbenzenesulfonate]", "values": [{"measurement": "Activity on LDLR mRNA expression (Fold of control)", "value": "2.62 ± 0.17 Fold of control"}]}, {"molecule": "COc1ccc2c(c1OS(=O)(=O)c1ccc(F)cc1)CN1CCc3cc4c(cc3C1C2)OCO4", "note": "(centres unmarked) [Compound 58, 10-methoxy-5,6,7,8,13,13a-hexahydro-2H-1,3-dioxolano[4,5-g]isoquinolino[3,2-a]isoquinolin-9-yl 4-fluorobenzenesulfonate]", "values": [{"measurement": "Activity on LDLR mRNA expression (Fold of control)", "value": "3.90 ± 0.01 Fold of control"}]}, {"molecule": "COc1ccc2c(c1OS(=O)(=O)c1ccc(F)cc1F)CN1CCc3cc4c(cc3C1C2)OCO4", "note": "(centres unmarked) [Compound 59, 10-methoxy-5,6,7,8,13,13a-hexahydro-2H-1,3-dioxolano[4,5-g]isoquinolino[3,2-a]isoquinolin-9-yl 2,4-difluorobenzenesulfonate]", "values": [{"measurement": "Activity on LDLR mRNA expression (Fold of control)", "value": "3.73 ± 0.10 Fold of control"}]}, {"molecule": "COc1ccc2c(c1OS(=O)(=O)c1cccc(C)c1)CN1CCc3cc4c(cc3C1C2)OCO4", "note": "(centres unmarked) [Compound 60, 10-methoxy-5,6,7,8,13,13a-hexahydro-2H-1,3-dioxolano[4,5-g]isoquinolino[3,2-a]isoquinolin-9-yl 3-methylbenzenesulfonate]", "values": [{"measurement": "Activity on LDLR mRNA expression (Fold of control)", "value": "3.46 ± 0.75 Fold of control"}]}, {"molecule": "COc1ccc2c(c1OC(=O)Nc1ccccc1)CN1CCc3cc4c(cc3C1C2)OCO4", "note": "(centres unmarked) [Compound 61, (10-methoxy(5,6,7,8,13,13a-hexahydro-2H-1,3-dioxolano[4,5-g]isoquinolino[3,2-a]isoquinolin-9-yloxy))-N-benzamide]", "values": [{"measurement": "Activity on LDLR mRNA expression (Fold of control)", "value": "1.33 ± 0.53 Fold of control"}]}, {"molecule": "COc1ccc2c(c1OS(=O)(=O)c1cccc([N+](=O)[O-])c1)CN1CCc3cc4c(cc3C1C2)OCO4", "note": "(centres unmarked) [Compound 63, 10-methoxy-5,6,7,8,13,13a-hexahydro-2H-1,3-dioxolano[4,5-g]isoquinolino[3,2-a]isoquinolin-9-yl 3-nitrobenzenesulfonate]", "values": [{"measurement": "Activity on LDLR mRNA expression (Fold of control)", "value": "2.94 ± 0.13 Fold of control"}]}, {"molecule": "COc1cc2c(cc1OC)C1Cc3ccc(OC)c(OCc4ccccc4)c3CN1CC2", "note": "(centres unmarked) [Compound 64, 2,3,10-trimethoxy-9-(phenylmethoxy)-5,6,7,8,13,13a-hexahydroisoquinolino[3,2-a]isoquinoline]", "values": [{"measurement": "Activity on LDLR mRNA expression (Fold of control)", "value": "2.82 ± 0.45 Fold of control"}]}, {"molecule": "COc1ccc2c(c1OS(=O)(=O)c1ccc([N+](=O)[O-])cc1)CN1CCc3cc4c(cc3C1C2)OCO4", "note": "(centres unmarked) [Compound 65, 10-methoxy-5,6,7,8,13,13a-hexahydro-2H-1,3-dioxolano[4,5-g]isoquinolino[3,2-a]isoquinolin-9-yl 4-nitrobenzenesulfonate]", "values": [{"measurement": "Activity on LDLR mRNA expression (Fold of control)", "value": "2.58 ± 0.46 Fold of control"}]}, {"molecule": "COc1ccc2c(c1OS(=O)(=O)c1cccc3cccnc13)CN1CCc3cc4c(cc3C1C2)OCO4", "note": "(centres unmarked) [Compound 66, 10-methoxy-5,6,7,8,13,13a-hexahydro-2H-1,3-dioxolano[4,5-g]isoquinolino[3,2-a]isoquinolin-9-yl quinoline-8-sulfonate]", "values": [{"measurement": "Activity on LDLR mRNA expression (Fold of control)", "value": "2.54 ± 0.06 Fold of control"}]}, {"molecule": "COc1ccc2c(c1OS(=O)(=O)c1ccc(C(F)(F)F)cc1)CN1CCc3cc4c(cc3C1C2)OCO4", "note": "(centres unmarked) [Compound 85, 9-(4-trifluoromethyl-benzenesulfonyloxy)-10-methoxy-5,8,13,13a-tetrahydro-6H-[1,3]dioxolo[4,5-g]isoquino[3,2-a]isoquinoline]", "values": [{"measurement": "Activity on LDLR mRNA expression (Fold of control)", "value": "1.42 ± 0.30 Fold of control"}]}, {"molecule": "COc1ccc(S(=O)(=O)Oc2c(OC)ccc3c2CN2CCc4cc5c(cc4C2C3)OCO5)cc1OC", "note": "(centres unmarked) [Compound 86, 9-(3,4-dimethoxy-benzenesulfonyloxy)-10-methoxy-5,8,13,13a-tetrahydro-6H-[1,3]dioxolo[4,5-g]isoquino[3,2-a]isoquinoline]", "values": [{"measurement": "Activity on LDLR mRNA expression (Fold of control)", "value": "2.48 ± 0.62 Fold of control"}]}, {"molecule": "COc1ccc2c(c1OCCN1CCOCC1)CN1CCc3cc4c(cc3C1C2)OCO4", "note": "(centres unmarked) [Compound 88, 9-O-2-(1′-morpholine-ethyl)-10-methoxy-5,8,13,13a-tetrahydro-6H-[1,3]dioxolo[4,5-g]isoquino[3,2-a]isoquinoline]", "values": [{"measurement": "Activity on LDLR mRNA expression (Fold of control)", "value": "1.93 ± 0.24 Fold of control"}]}, {"molecule": "COc1ccc2c(c1OS(=O)(=O)c1cccc3c(N(C)C)cccc13)CN1CCc3cc4c(cc3C1C2)OCO4", "note": "(centres unmarked) [Compound 89, 10-methoxy-5,6,7,8,13,13a-hexahydro-2H-1,3-dioxolano [4,5-g]isoquinolino[3,2-a] isoquinolin-9-yl 5-(dimethylamino)naphthalene-sulfonate]", "values": [{"measurement": "Activity on LDLR mRNA expression (Fold of control)", "value": "1.92 ± 0.40 Fold of control"}]}, {"molecule": "COc1ccc2c(c1OS(=O)(=O)C(F)(F)F)CN1CCc3cc4c(cc3C1C2)OCO4", "note": "(centres unmarked) [Compound 90, 10-methoxy-5,6,7,8,13,13a-hexahydro-2H-1,3-dioxolano[4,5-g] isoquinolino[3,2-a] isoquinolin-9-yl (trifluoromethyl)sulfonate]", "values": [{"measurement": "Activity on LDLR mRNA expression (Fold of control)", "value": "1.21 ± 0.07 Fold of control"}]}, {"molecule": "COc1ccc2c(c1)CN1CCc3cc4c(cc3C1C2)OCO4", "note": "(centres unmarked) [Compound 92, 10-methoxy-5,6,7,8,13,13a-hexahydro-2H-1,3-dioxolano[4,5-g]isoquinolino[3,2-a]isoquinoline]", "values": [{"measurement": "Activity on LDLR mRNA expression (Fold of control)", "value": "1.52 ± 0.07 Fold of control"}]}, {"molecule": "COc1ccc2c(c1OS(=O)(=O)c1sc(NC(C)=O)nc1C)CN1CCc3cc4c(cc3C1C2)OCO4", "note": "(centres unmarked) [Compound 93, 10-methoxy-5,6,7,8,13,13a-hexahydro-2H-1,3-dioxolano [4,5-g]isoquinolino[3,2-a]isoquinolin-9-yl 2-(acetylamino)-4-methyl-1,3-thiazole-5-sulfonate]", "values": [{"measurement": "Activity on LDLR mRNA expression (Fold of control)", "value": "1.42 ± 0.16 Fold of control"}]}, {"molecule": "COc1ccc2c(c1Oc1ncc([N+](=O)[O-])cc1C)CN1CCc3cc4c(cc3C1C2)OCO4", "note": "(centres unmarked) [Compound 94, 10-methoxy-9-(3-methyl-5-nitro(2-pyridyl)oxy)-5,6,7,8,13,13a-hexahydro-2H-1,3-dioxolano[4,5-g]isoquinolino[3,2-a]isoquinoline]", "values": [{"measurement": "Activity on LDLR mRNA expression (Fold of control)", "value": "1.22 ± 0.18 Fold of control"}]}, {"molecule": "COc1cc2c(cc1OCc1ccccc1)CCN1Cc3c(ccc(OC)c3OS(=O)(=O)c3ccccc3)CC21", "note": "(centres unmarked) [Compound 95, 2,10-dimethoxy-3-(phenylmethoxy)-5,6,7,8,13,13a-hexahydroisoquinolino[2,1-b]isoquinolin-9-yl benzenesulfonate]", "values": [{"measurement": "Activity on LDLR mRNA expression (Fold of control)", "value": "1.43 ± 0.04 Fold of control"}]}, {"molecule": "COc1ccc2c(c1Oc1ccc([N+](=O)[O-])cn1)CN1CCc3cc4c(cc3C1C2)OCO4", "note": "(centres unmarked) [Compound 96, 10-methoxy-9-(5-nitro(2-pyridyl)oxy)-5,6,7,8,13,13a-hexahydro-2H-1,3-dioxolano [4,5-g]isoquinolino[3,2-a]isoquinoline]", "values": [{"measurement": "Activity on LDLR mRNA expression (Fold of control)", "value": "1.33 ± 0.05 Fold of control"}]}, {"molecule": "COc1ccc2c(c1Oc1ncc(N)cc1C)CN1CCc3cc4c(cc3C1C2)OCO4", "note": "(centres unmarked) [Compound 100, 6-(10-methoxy(5,6,7,8,13,13a-hexahydro-2H-1,3-dioxolano[4,5-g]isoquinolino[3,2-a]isoquinolin-9-yloxy))-5-methyl-3-pyridylamine]", "values": [{"measurement": "Activity on LDLR mRNA expression (Fold of control)", "value": "1.44 ± 0.59 Fold of control"}]}, {"molecule": "COc1ccc2c(c1OS(=O)(=O)c1cccnc1)CN1CCc3cc4c(cc3C1C2)OCO4", "note": "(centres unmarked) [Compound 101, 10-methoxy-5,6,7,8,13,13a-hexahydro-2H-1,3-dioxolano [4,5-g]isoquinolino[3,2-a]isoquinolin-9-yl pyridine-3-sulfonate]", "values": [{"measurement": "Activity on LDLR mRNA expression (Fold of control)", "value": "1.97 ± 0.00 Fold of control"}]}]}
